Data: patent US9920039B2, “1,2,4-Oxadiazol compounds active against gram-positive pathogens” (UNIVERSITÀ DEGLI STUDI DI MILANO—BICOCCA, priority 2013, dated 2018)
Values after ≈ are worked out from the molar mass of the structure shown. Read-outs that look alike come from different tables or passages of the source.

How the values were obtained:
[1] = system: Linezolid-resistant S. epidermidis Strains 1-10; test: MIC by broth microdilution (Table 5); type: cell-based, Staphylococcus epidermidis
Description: (§1) The in vitro antibacterial activity of the new agents was studied by determining their minimum inhibitory concentrations (MICs) by means of the broth microdilution method according to the Clinical and Laboratory Standards Institute (CLSI) guidelines.[16] Briefly, serial 2-fold dilutions of each compound were made using the Cation adjusted Mueller-Hinton broth (CAMHB) in microtitre plates with 96 wells. Dimethyl sulfoxide (DMSO) was used as solvent for all the synthesized compounds. An equal volume of the bacterial inoculum (1×10^6 CFU/mL) was added to each well on the microtitre plate containing 0.05 mL of the serial antibiotic dilutions. The microtitre plate was then incubated at 37° C. for 18-24 h after which each well was analysed for the presence of bacterial growth. The MIC was defined as the lowest concentration of antimicrobial agent able to cause inhibition of bacterial growth as shown by the lack of turbidity of the culture medium. […] Final DMSO concentrations were also taken into account in all the biological assays.

[2] = system: 45 Linezolid-susceptible MRSA; test: MIC summary on strain panel (Table 5); type: cell-based, Staphylococcus aureus
Description: In particular, eleven linezolid-resistant coagulase-negative staphylococci (CoNS) (ten S. epidermidis and one S. hominis) were investigated. The eleven linezolid-resistant strains were isolated in several hospital settings between 2010 and 2011 from positive blood cultures. For the […], recently isolated from patients with cystic fibrosis, showing different profiles of multi-resistance to different classes of antimicrobials, was used (Table 4 and 5).
as §1

[3] = system: Linezolid-resistant S. hominis Strain 11; test: MIC by broth microdilution (Table 5); type: cell-based, Staphylococcus hominis; details: S. hominis Strain 11, linezolid-resistant
Description: as §1

ATCC E. faecalis 29212 = test: MIC by broth microdilution (Table 5); type: cell-based, Enterococcus faecalis
Protocol: Dimethyl sulfoxide (DMSO) was used as solvent for all the synthesized compounds. An equal volume of the bacterial inoculum (1×10^6 CFU/mL) was added to each well on the microtitre plate containing 0.05 mL of the serial antibiotic dilutions. The microtitre plate was then incubated at 37° C. for 18-24 h after which each well was analysed for the presence of bacterial growth. The MIC was defined as the lowest concentration of antimicrobial agent able to cause inhibition of bacterial growth as shown by the lack of turbidity of the culture medium. […] Final DMSO concentrations were also taken into account in all the biological assays.

[4] = system: mitochondrial protein synthesis (OXPHOS complexes) in HepG2 cells; test: Oxidative phosphorylation (OXPHOS) assay
Description: This assay (Nadaciva S. et al., 2010) is used to monitor the level of mitochondrial protein synthesis of some key proteins in the process of oxidative phosphorylation of eukaryotic cells, comparing it with the level of synthesis of mitochondrial proteins encoded by nuclear DNA. This study allows us to analyze the effects of A4bS on the proteins encoded by mitochondrial DNA (mtDNA).
The data represent the mean±SEM of three separate experiments performed in triplicate. Statistical significance is obtained by the Student's test compared to the […].

[5] = system: 11 Linezolid-resistant CoNS; test: MIC summary on strain panel (Table 5); type: cell-based, Staphylococcus epidermidis, Staphylococcus hominis
Description: as §1

[6] = system: Staphylococcus aureus ATCC 29213; test: MIC by broth microdilution (CLSI); type: cell-based; details: read-out: MIC
Description: (§2) Several well characterized for their antibiotic-susceptibility phenotype Staphylococcus aureus isolates were used for the determination of the in vitro antibacterial activity of the studied compounds. In particular, S. aureus ATCC 29213 reference standard strain and S. aureus M923 (collection strain) were used as MSSA strains. Among MRSA, S. aureus MU50 (ATCC 700699) reference standard strain and two collection strains (433 and F511) were used for susceptibility assays.
as §1
(§3) The antimicrobial activities, summarized in Table 2, were determined by the “gold standard” method of broth microdilution, as recommended by the Clinical Laboratory Standards Institute (CLSI) (See the Experimental Section). […] In detail, the bacterial strains were tested: Staphylococcus aureus ATCC 29213, a clinical strain of methicillin-susceptible S. aureus (M923), S. aureus MU50 (methicillin-resistant—MRSA), and two methicillin-resistant clinical strains, 433 and F511.
(§4) The antimicrobial activities, summarized in Table 3, were determined by the “gold standard” method of broth microdilution, as recommended by the Clinical Laboratory Standards Institute (CLSI) (See the Experimental Section). The minimum inhibitory concentration (MIC) values were expressed in μg/mL. […] In detail, the tested bacterial strains were: Staphylococcus aureus ATCC 29213, a clinical strain of methicillin-susceptible S. aureus (M923), S. aureus MU50 (methicillin-resistant—MRSA) strain, and two methicillin-resistant clinical strains, 433 and F511.

[7] = system: 6 ATCC (4MSSA, 2 MRSA)plus45 MRSA all LZD sensitive; test: MIC on strain panel (Table 4); type: cell-based, Staphylococcus aureus; details: 6 ATCC plus 45 MRSA
Description: as §1

[8] = system: 12 MRSE all LZD sensitive; test: MIC on strain panel (Table 4); type: cell-based, Staphylococcus epidermidis; details: Staphylococcus epidermidis
Description: as §1

MRSA clinical strain 433 = test: MIC by broth microdilution (CLSI); type: cell-based, Staphylococcus aureus; details: Staphylococcus aureus; MRSA 433; racemic form; Table 3; read-out: MIC
Description: as §2, §1, §3, §4

[9] = system: MRSA clinical strain F511; test: MIC by broth microdilution (CLSI); type: cell-based, Staphylococcus aureus; details: Staphylococcus aureus, racemic form, Table 3, read-out: MIC
Description: as §2, §1, §3, §4

[10] = system: S. aureus MU50 (ATCC 700699), methicillin-resistant (MRSA); test: MIC by broth microdilution (CLSI); type: cell-based, Staphylococcus aureus; details: Staphylococcus aureus, racemic form, Table 3, read-out: MIC
Description: as §2, §1, §3, §4

[11] = system: methicillin-susceptible S. aureus (M923); test: MIC by broth microdilution (CLSI); type: cell-based, Staphylococcus aureus; details: Staphylococcus aureus; MSSA M923; racemic form; Table 3; read-out: MIC
Description: as §2, §1, §3, §4

[12] = S. epidermidis Strain 1, linezolid-resistant
[13] = S. epidermidis Strain 2, linezolid-resistant
[14] = S. epidermidis Strain 3, linezolid-resistant
[15] = S. epidermidis Strain 4, linezolid-resistant
[16] = S. epidermidis Strain 5, linezolid-resistant
[17] = S. epidermidis Strain 6, linezolid-resistant
[18] = S. epidermidis Strain 7, linezolid-resistant
[19] = S. epidermidis Strain 8, linezolid-resistant
[20] = S. epidermidis Strain 9, linezolid-resistant
[21] = S. epidermidis Strain 10, linezolid-resistant
[22] = ATCC S. aureus 29213, resolved enantiomers, Table 5

SMILES	MIC [1, 12] [µg/mL]	MIC [1, 13] [µg/mL]	MIC [1, 14] [µg/mL]	MIC [1, 15] [µg/mL]	MIC [1, 16] [µg/mL]	MIC [1, 17] [µg/mL]	MIC [1, 18] [µg/mL]	MIC [1, 19] [µg/mL]	MIC [1, 20] [µg/mL]	MIC [1, 21] [µg/mL]	MIC50 [2] [µg/mL]	MIC [3] [µg/mL]	MIC (ATCC E. faecalis 29212) [µg/mL]	MIC50 ([5]; 11 Linezolid-resistant CoNS) [µg/mL]	MIC90 ([5]; 11 Linezolid-resistant CoNS) [µg/mL]	MIC [6, 22] [µg/mL]	other results
CC(=S)NC[C@H]1CN(c2ccc(-c3nc(C)no3)c(F)c2)C(=O)O1 [Compound A4bS]	8 (≈ 22.8 µM)	8 (≈ 22.8 µM)	4 (≈ 11.4 µM)	4 (≈ 11.4 µM)	2 (≈ 5.71 µM)	4 (≈ 11.4 µM)	8 (≈ 22.8 µM)	2 (≈ 5.71 µM)	1 (≈ 2.85 µM)	4 (≈ 11.4 µM)	0.5 (≈ 1.43 µM)	4 (≈ 11.4 µM)	2 (≈ 5.71 µM)	4 (≈ 11.4 µM)	8 (≈ 22.8 µM)	4 (≈ 11.4 µM)	effect on proteins synthesized by mtDNA (in words) [4]: reduction of the synthesis of proteins of complex I and IV; effect on linezolid resistance (in words) ([5]; linezolid-resistant Staphylococcus spp. strains): completely reversed resistance to linezolid into susceptibility
CNC(=S)NCC1CN(c2ccc(-c3nc(C)no3)c(F)c2)C(=O)O1 (racemic) [Compound B4b, 1-((3-(3-fluoro-4-(3-methyl-1,2,4-oxadiazol-5-yl)phenyl)-oxazolidin-2-one-5-yl)methyl)-3-methylthiourea]	–	–	–	–	–	–	–	–	–	–	–	–	–	–	–	–	melting point: 170.7 to 172.4 °C; MIC-range ([7]; tested range ≤0.06 - >128): 0.5 to 16 µg/mL; MIC50 ([7]; Staphylococcus aureus, read-out: MIC50): 4 µg/mL; MIC90 ([7]; Staphylococcus aureus, read-out: MIC90): 16 µg/mL; MIC50 ([8]; read-out: MIC50): 64 µg/mL (≈ 175 µM); MIC90 ([8]; read-out: MIC90): 128 µg/mL (≈ 350 µM); MIC ([6]; Staphylococcus aureus, ATCC29213, ATCC 29213, racemic form, Table 3): 6.25 µg/mL (≈ 17.1 µM); MIC (MRSA clinical strain 433): 3.12 µg/mL (≈ 8.55 µM); MIC [9]: 6.25 µg/mL (≈ 17.1 µM); MIC [10]: 1.6 µg/mL (≈ 4.38 µM); MIC [11]: 6.25 µg/mL (≈ 17.1 µM)
CC(=S)NC[C@@H]1CN(c2ccc(-c3nc(C)no3)c(F)c2)C(=O)O1 [Compound A4bR]	128 (≈ 365 µM)	> 128	> 128	128 (≈ 365 µM)	128 (≈ 365 µM)	64 (≈ 183 µM)	> 128	128 (≈ 365 µM)	> 128	128 (≈ 365 µM)	128 (≈ 365 µM)	128 (≈ 365 µM)	32 (≈ 91.3 µM)	128 (≈ 365 µM)	128 (≈ 365 µM)	64 (≈ 183 µM)	–
CC(=S)NC[C@@H]1CN(c2ccc(-c3nc(C)no3)cc2)C(=O)O1 [Compound A4aR]	> 128	> 128	> 128	> 128	> 128	> 128	> 128	> 128	> 128	> 128	> 128	> 128	> 128	> 128	> 128	128 (≈ 385 µM)	MIC-range ([5]; 11 Linezolid-resistant CoNS): > 128 µg/mL
